One test deals with hIL-6 mRNA. The experiment in a line: Inhibition of hIL-6 mRNA transcription in LPS-stimulated U937 cells. It is filed as cell-based. Particulars: Homo sapiens, U-937; PMA-differentiated U937 cells, 1 h pretreatment, 1 ug/mL LPS stimulation, 3 h; read-out: IL-6 activity (Inhibition of hIL-6 mRNA Transcription). The method, then:
In this example, hIL-6 mRNA in tissue culture cells was quantitated to measure the transcriptional inhibition of hIL-6 when treated with a compound of the invention.
Human leukemic monocyte lymphoma U937 cells (CRL-1593.2) were plated at a density of 3.2×10^4 cells per well in a 96-well plate in 100 μL RPMI-1640 containing 10% FBS and penicillin/streptomycin, and differentiated into macrophages for 3 days in 60 ng/mL PMA ([…]) at 37° C. in 5% CO2 prior to the addition of compound. The cells were pretreated for 1 h with increasing concentrations of test compound in 0.1% DMSO prior to stimulation with 1 ug/mL lipopolysaccharide from Escherichia coli. Triplicate wells were used for each concentration. The cells were incubated at 37° C., 5% CO2 for 3 h before the cells were harvested. At time of harvest, media was removed and cells were rinsed in 200 μL PBS. Cells were harvested using the mRNA Catcher PLUS kit according to manufacturer's instructions. The eluted mRNA was then used in a one-step quantitative real-time PCR reaction using components of the RNA UltraSense™ One-Step Kit (Life Technologies) together with Applied Biosystems TaqMan® primer-probes for hIL-6 and Cyclophilin. Real-time PCR plates were run on a VIa™ 7 real time PCR machine (Applied Biosystems), data was analyzed, normalizing the Ct values for hIL-6 to an internal control, prior to determining the fold expression of each sample, relative to the control.

Test [1] deals with T1, Brd4 bromodomain 1 (BRD4(1)) (Homo sapiens, UniProt O60885).
T1 construct: made in house; host or cells: E. coli BL21(DE3)
The experiment in a line: Inhibition of tetra-acetylated histone H4 binding to Brd4 bromodomain 1 (TR-FRET). Particulars: tetra-acetylated histone H4 peptide, first bromodomain of Brd4. Put shortly: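 His-tagged BRD4(1) from E. coli (200 nM) with biotinylated tetra-acetylated H4 peptide (25-50 nM), Eu-cryptate streptavidin and XL665 anti-His, in HEPES pH 7.4/phosphate/KF buffer, 0.2% DMSO. After 2 h at room temperature, TR-FRET 665/620 nm ratio read; IC50 from dose-response curves.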
On the technique in general: TR-FRET usually uses a lanthanide donor and a delayed reading to cut background.

The next test concerns human AML MV-4-11 cells. The experiment in a line: Inhibition of cell proliferation in MV4-11 cells (CellTiter Aqueous One). Type of test: cell-based. Particulars: for Cell Proliferation activity: 72 h; for IC50: MV4-11, 72 h. Put shortly: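 Exponentially growing MV-4-11 cells (5×10^4/well) were treated immediately with two-fold dilutions of compound from 30 μM to 0.2 μM, in triplicate, for 72 h at 37° C, 5% CO2. Viability was measured by MTS absorbance at 490 nm after 3–4 h. Proliferation relative to DMSO after blank correction gave IC50.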

In the next test the test system is c-myc. The experiment in a line: Inhibition of c-myc expression (mRNA, real-time PCR) in MV4-11 cells. Type of test: cell-based. Particulars: Human AML MV4-11 cells, 3 h, cMYC mRNA. In a few lines:
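MV4-11 cells treated 3 h at 37° C with increasing compound concentrations or 0.1% DMSO, in triplicate. cMYC mRNA quantified by one-step TaqMan real-time PCR, Ct normalized to internal control (Cyclophilin primers used), fold expression relative to control.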

With `Cc1noc(C)c1-c1nc(N)c2ncn(Cc3ccccc3)c2n1` [Example Compound 1, 9-Benzyl-2-(3,5-dimethylisoxazol-4-yl)-9H-purin-6-amine], the IC50 (in the test with hIL-6 mRNA; in test [1]) was 300 to 3000 nM each time. The “Cell Proliferation activity” value with human AML MV-4-11 cells is reported as “Not active”.

`Cc1noc(C)c1-c1ccc2ncc(=O)n(Cc3ccccc3)c2c1` [Example Compound 11, 1-Benzyl-7-(3,5-dimethylisoxazol-4-yl)quinoxalin-2(1H)-one]: the IC50 with hIL-6 mRNA was 300 to 3000 nM; in test [1] it was ≤ 300 nM. The “Cell Proliferation activity” value in the test with human AML MV-4-11 cells is reported as “Not active”.

On to `Cc1noc(C)c1-c1cc(C(N)=O)c2[nH]c(=O)n(Cc3ccccc3)c2c1` [Example Compound 21, 1-benzyl-6-(3,5-dimethylisoxazol-4-yl)-2-oxo-2,3-dihydro-1H-benzo[d]imidazole-4-carboxamide], for which the results for the IC50 (in the test on hIL-6 mRNA; in test [1]; in the test with human AML MV-4-11 cells) were ≤ 300 nM, ≤ 300 nM and 300 to 3000 nM, respectively.

For `Cc1noc(C)c1-c1ccc2[nH]cc(Nc3ccccc3)c2n1` [Example Compound 23, 5-(3,5-dimethylisoxazol-4-yl)-N-phenyl-1H-pyrrolo[3,2-b]pyridin-3-amine], the IC50 with hIL-6 mRNA fell in the range of 300 to 3000 nM; in test [1] it was 300 to 3000 nM; in the test on human AML MV-4-11 cells, 3000 to 30000 nM.

On to `Cc1noc(C)c1-c1cc2c(cn1)ncn2Cc1ccccc1` [Example Compound 31, 4-(1-benzyl-1H-imidazo[4,5-c]pyridin-6-yl)-3,5-dimethylisoxazole], for which the IC50 was in the range of 300 to 3000 nM with hIL-6 mRNA, 300 to 3000 nM in test [1] and 3000 to 30000 nM in the test with human AML MV-4-11 cells.

Take `Cc1noc(C)c1-c1cnc2c(c1)ncn2Cc1ccc(C(F)(F)F)cc1` [Example Compound 40, 3,5-dimethyl-4-(3-(4-(trifluoromethyl)benzyl)-3H-imidazo[4,5-b]pyridin-6-yl)isoxazole]: the values for the IC50 (in the test with hIL-6 mRNA; in test [1]) were 3000 to 30000 nM and 300 to 3000 nM, respectively. Besides, the “Cell Proliferation activity” value with human AML MV-4-11 cells was “Not active”.

Consider `Cc1noc(C)c1-c1cc2c(ccn2Cc2ccccc2)[nH]c1=O` [Example Compound 56, 1-benzyl-6-(3,5-dimethylisoxazol-4-yl)-1H-pyrrolo[3,2-b]pyridin-5(4H)-one], for which the IC50 with hIL-6 mRNA was 3000 to 30000 nM; in test [1] it was 300 to 3000 nM.

For `CC(=O)Nc1cc(-c2c(C)noc2C)cc2c1n(C)c(=O)n2Cc1ccccc1` [compound 164, N-(1-benzyl-6-(3,5-dimethylisoxazol-4-yl)-3-methyl-2-oxo-2,3-dihydro-1H-benzo[d]imidazol-4-yl)acetamide], the IC50 (in the test with hIL-6 mRNA; in test [1]) was ≤ 300 nM each time.

In the case of `Cc1noc(C)c1-c1cnc2nc(C)n(CC3CCC3)c2c1` [compound 193, 4-(1-(cyclobutylmethyl)-2-methyl-1H-imidazo[4,5-b]pyridin-6-yl)-3,5-dimethylisoxazole], the results for the IC50 (with c-myc; in test [1]; in the test on human AML MV-4-11 cells) were 300 to 3000 nM, ≤ 300 nM and 300 to 3000 nM, respectively.

For `Cc1noc(C)c1-c1cnc2nc(NCc3ccccn3)n(Cc3ccccc3)c2c1` [compound 194, 1-benzyl-6-(3,5-dimethylisoxazol-4-yl)-N-(pyridin-2-ylmethyl)-1H-imidazo[4,5-b]pyridin-2-amine], the IC50 (in the test with c-myc; in test [1]; in the test with human AML MV-4-11 cells) was ≤ 300 nM throughout.

`Cc1noc(C)c1-c1cnc2nc(N3CCCC3)n(Cc3ccccc3)c2c1` [compound 195, 4-(1-benzyl-2-(pyrrolidin-1-yl)-1H-imidazo[4,5-b]pyridin-6-yl)-3,5-dimethylisoxazole]: the IC50 (with c-myc; in test [1]; in the test on human AML MV-4-11 cells) was ≤ 300 nM each time.

As to `Cc1noc(C)c1-c1cnc2nc(NCCO)n(Cc3ccccc3)c2c1` [compound 196, 2-((1-benzyl-6-(3,5-dimethylisoxazol-4-yl)-1H-imidazo[4,5-b]pyridin-2-yl)amino)ethanol], the IC50 is ≤ 300 nM in the test on c-myc, ≤ 300 nM in test [1] and 300 to 3000 nM with human AML MV-4-11 cells.

For the molecule `Cc1noc(C)c1-c1cc(N2CC(O)C2)c2nc(C)n(Cc3ccccc3)c2c1` [compound 197, 1-(1-benzyl-6-(3,5-dimethylisoxazol-4-yl)-2-methyl-1H-benzo[d]imidazol-4-yl)azetidin-3-ol], the IC50 (in the test with c-myc; in test [1]; in the test with human AML MV-4-11 cells) was ≤ 300 nM in each case.

With `Cn1nccc1-c1cc([N+](=O)[O-])c2c(c1)n(Cc1ccccc1)c(=O)n2C` [compound 198, 1-benzyl-3-methyl-6-(1-methyl-1H-pyrazol-5-yl)-4-nitro-1H-benzo[d]imidazol-2(3H)-one], the IC50 with c-myc was 3000 to 30000 nM; in test [1] it was ≤ 300 nM; in the test on human AML MV-4-11 cells, 3000 to 30000 nM.

As to `Cn1nccc1-c1cc(N)c2c(c1)n(Cc1ccccc1)c(=O)n2C` [compound 199, 4-amino-1-benzyl-3-methyl-6-(1-methyl-1H-pyrazol-5-yl)-1H-benzo[d]imidazol-2(3H)-one], the IC50 is 300 to 3000 nM in the test on c-myc, ≤ 300 nM in test [1] and 300 to 3000 nM in the test on human AML MV-4-11 cells.

Regarding `Cc1oncc1-c1cc(N)c2nc(C)n(Cc3ccccc3)c2c1` [compound 201, 1-benzyl-2-methyl-6-(5-methylisoxazol-4-yl)-1H-benzo[d]imidazol-4-amine], the IC50 in the test with c-myc is 300 to 3000 nM; in test [1] it was ≤ 300 nM; in the test with human AML MV-4-11 cells it was 300 to 3000 nM.

On to `Cc1noc(C)c1-c1cnc2[nH]c(=O)n(CC3CCCC3)c2c1` [compound 202, 1-(cyclopentylmethyl)-6-(3,5-dimethylisoxazol-4-yl)-1H-imidazo[4,5-b]pyridin-2(3H)-one], for which the IC50 in the test on c-myc is 300 to 3000 nM; in test [1], ≤ 300 nM; with human AML MV-4-11 cells it was 300 to 3000 nM.

For the molecule `Cc1noc(C)c1-c1cnc2[nH]c(=O)n(CC3CCC3)c2c1` [compound 203, 1-(cyclobutylmethyl)-6-(3,5-dimethylisoxazol-4-yl)-1H-imidazo[4,5-b]pyridin-2(3H)-one], the IC50 in the test on c-myc was 3000 to 30000 nM; in test [1], ≤ 300 nM; in the test on human AML MV-4-11 cells, 3000 to 30000 nM.

For `COc1ccc(CNc2nc3ncc(-c4c(C)noc4C)cc3n2Cc2ccccc2)cc1` [compound 205, 1-benzyl-6-(3,5-dimethylisoxazol-4-yl)-N-(4-methoxybenzyl)-1H-imidazo[4,5-b]pyridin-2-amine], the IC50 in the test with c-myc is 300 to 3000 nM; in test [1], ≤ 300 nM; with human AML MV-4-11 cells it was 300 to 3000 nM.

Take `Cc1noc(C)c1-c1cnc2nc(N3CCOCC3)n(CC3CCC3)c2c1` [compound 210, 4-(1-(cyclobutylmethyl)-6-(3,5-dimethylisoxazol-4-yl)-1H-imidazo[4,5-b]pyridin-2-yl)morpholine]: the IC50 in the test with c-myc is 300 to 3000 nM; in test [1] it was ≤ 300 nM; in the test on human AML MV-4-11 cells, 300 to 3000 nM.

In the case of `Cc1noc(C)c1-c1cnc2nc(NCCN(C)C)n(Cc3ccccc3)c2c1` [compound 212, N1-(1-benzyl-6-(3,5-dimethylisoxazol-4-yl)-1H-imidazo[4,5-b]pyridin-2-yl)-N2,N2-dimethylethane-1,2-diamine], the IC50 was 300 to 3000 nM in the test with c-myc, ≤ 300 nM in test [1] and 300 to 3000 nM in the test on human AML MV-4-11 cells.

In the case of `Cc1noc(C)c1-c1cnc2nc(N3CCNCC3)n(Cc3ccccc3)c2c1` [compound 213, 4-(1-benzyl-2-(piperazin-1-yl)-1H-imidazo[4,5-b]pyridin-6-yl)-3,5-dimethylisoxazole], the IC50 with c-myc is 300 to 3000 nM; in test [1], ≤ 300 nM; with human AML MV-4-11 cells it was 300 to 3000 nM.

Regarding `Cc1noc(C)c1-c1cnc2[nH]c(=O)n([C@@H](C)c3ccccc3)c2c1` [compound 219, (S)-6-(3,5-dimethylisoxazol-4-yl)-1-(1-phenylethyl)-1H-imidazo[4,5-b]pyridin-2(3H)-one], the IC50 (in the test with c-myc; in test [1]; in the test with human AML MV-4-11 cells) was 300 to 3000 nM each time.

For `Cc1noc(C)c1-c1cnc2nc(NC3CCOCC3)n(CC3CCCC3)c2c1` [compound 222, 1-(cyclopentylmethyl)-6-(3,5-dimethylisoxazol-4-yl)-N-(tetrahydro-2H-pyran-4-yl)-1H-imidazo[4,5-b]pyridin-2-amine], the IC50 (with c-myc; in test [1]; in the test with human AML MV-4-11 cells) was ≤ 300 nM throughout.
